Results reported in a melting point compilation (Tetko et al.; mined from patent text by program, amines drawn as free bases though some values may be those of a salt).

melting point [°C]	SMILES
127 to 129	Cc1ccnc(-n2ccnc2S(=O)Cc2ccccc2N(C)C)c1 (stereo not given)
194	CCOC(=O)C(=O)Nc1ccc(C#N)c(C#N)c1
230 to 232	Cn1cc(C(=O)NCc2ccc(C#N)cc2)c(=O)c2cc(C#CCO)ccc21
145 to 147	CC(=O)NC(C(=O)NCc1ccccc1)c1cn(S(=O)(=O)N(C)C)cn1 (stereo not given)
275	Cc1cc(-c2cnn3c(C(F)(F)F)cc(-c4ccc(Cl)c(Cl)c4)nc23)ccn1
193 to 194	COC(=O)C(C#N)=CC=Cc1cc([N+](=O)[O-])ccc1Cl
209 to 211	CCc1cc(C(=O)c2ccccc2Cl)c(-n2c(CNC(=O)c3cc4ccccc4[nH]3)nnc2C(C)C)s1
132 to 134	CC(=O)N(C(C)=O)c1c(C#N)cnn1-c1c(F)cc(F)c(F)c1F
92.5 to 102	COC(=O)c1ccccc1Nc1ccccc1
218 to 223	O=C(COc1ccc(-c2ccccc2Cl)cn1)Nc1cscc1C(=O)O
142 to 144	CCOC(=O)C(=O)N(c1ccccc1)c1ccc(OC)cc1OC
105 to 108	O=C(OCC1OC(OCc2ccccc2)C(OCc2ccccc2)C(OCc2ccccc2)C1OCc1ccccc1)c1ncc[nH]1 (stereo not given)
179	O=C(Nc1ccnc(Br)c1)C1(O)CCCCC1
124 to 125	O=C(OCCN1CCOC1=O)c1ccccc1Nc1ccnc2cc(C(F)(F)F)ccc12
252 to 257	c1ncn(Cc2ccc3c(c2)Cc2c(-c4ccsc4)n[nH]c2-3)n1
68 to 70	CCCCCCCOc1c(OC)cc(N)c2nccc(C)c12
148 to 149	CC(=O)OC1COC(N)C(OC(C)=O)C1OC(C)=O (stereo not given)
76 to 78	N#Cc1cc2c(nc1N1CCCCCC1)CCCC2=O
116 to 117	Cc1ccc(S(=O)(=O)NCc2ccc(C(=O)CBr)cc2)cc1
65 to 67	CCOC(=O)Cc1c(C(=O)OCC)c(CC)cn1C
201 to 203	CC1c2ccccc2-c2cc(Br)ccc2N1S(=O)(=O)c1ccc(O)cc1 (stereo not given)
105 to 110	COc1ccc(S(=O)(=O)N2Cc3ccccc3N(C(=O)c3cccc(C(F)(F)F)c3)CC2C(=O)O)cc1 (stereo not given)

melting point [°C]	SMILES
232	COc1ccc(-n2c(CC(=O)O)c(C(=O)O)c3cc(Oc4cc(C(F)(F)F)cc(C(F)(F)F)c4)ccc32)cc1
234 to 236	O=C(O)Cc1cccc2c(-c3ccc(Cl)cc3)nccc12
155	NC(=S)NC1Cc2ccccc2C1
131 to 133	CCCCOP(=O)(CCCCC1(C(=O)NCCC)c2ccccc2-c2cccnc21)OCCCC (stereo not given)
294	CCNC(=O)Nc1nc2cc(OCc3ccccc3)cc(Br)c2s1
126 to 130	COc1ccc(NC(=O)N(C)C)cc1
177 to 179	CN(C)c1ccc(C(=O)N2CCC(C(c3ccccc3)c3ccccc3)CC2)cc1
119 to 121	CCOC(=O)c1ccc2c(SC(=O)N(C)C)cccn2c1=O
165 to 166	COc1cc(OCC(CO)CO)c(C=CC(=O)c2ccc(S(=O)(=O)Nc3cc(C)on3)cc2)cc1-c1cccs1
83 to 85	COC(=O)c1ccc2oc(CCCCCc3cc4cc(C(=O)OC)ccc4o3)cc2c1
200	COc1cccc(/C=C/C(=O)N2CC(CCl)c3c2cc([N+](=O)[O-])c2ccccc32)c1 (stereo not given)
37.5 to 39.5	CCOC(=O)C=CN1CCCC1
177 to 179	CN1CCC(Oc2cccc(C(=O)Nc3cc(NC(=O)c4ccc(C#N)cc4)ccc3Cl)c2)CC1
140 to 141	O=C(NCCO)c1cccc(-c2ccc3[nH]cc(-c4ccc(Cl)cc4Cl)c3c2)c1
181 to 182	Cc1cc(F)ccc1-c1nc(NC2CCCCC2)nc2c1CCC(=O)N2c1ccccc1F
231 to 233	CC1=C(c2ccnnc2)SCC(=O)N1
> 230	CCc1nc(O)c(I)c(Cl)n1
158 to 160	CN(C(=O)Nc1ccccc1)c1ccc(Cl)cc1C(=O)c1ccccc1
91 to 93	CC(C)(C)[Si](C)(C)OC1CN(c2ccc(NC(=O)OCc3ccccc3)cc2F)C1
200 to 202	CCOCc1nc2c(N)nc3cc(OCc4nccn4C)ccc3c2n1CC(C)(C)O
163 to 164	Cc1ccc2c(Sc3cc(Cl)cc(Cl)c3)c(CCCC(N)=O)[nH]c2c1
150 to 152	O=CNCc1ccc2[nH]cc(CCCN3C(=O)c4ccccc4C3=O)c2c1

melting point [°C]	SMILES
271 to 273	CCOC(=O)c1cn(CCF)c2nc(SCC)c(F)cc2c1=O
153 to 154	CC(=O)Nc1nc(CCc2ccc(CCBr)cc2)cs1
107	Cc1cc(-n2ccnc2)c2cccc(OCc3c(Cl)ccc(S(=O)(=O)N4CCC[C@H]4C(=O)NCC4CCN(Cc5cccnc5)CC4)c3Cl)c2n1
238 to 242	Cn1ncnc1-n1cc(C(=O)O)c(=O)c2cc(F)c(Cl)nc21
170 to 174	N#Cc1cccc(-c2nnc(-c3cccnc3)o2)c1
99 to 100	COCCNC(=O)c1cccc(-c2ccc3c(c2)N(c2cccc(Cl)c2Cl)CC3)c1
119 to 122	CCN1C(=O)C(C)(C)C(=O)N(C)c2cc(CN(CCn3ccc4sccc4c3=O)Cc3cccnc3COC)ccc21
119	CCN(CC)C(=O)c1cc2sccc2c(-c2ccccc2Cl)n1
187	O=C(O)Cc1c(C(=O)c2ccc(OC(F)(F)F)cc2)[nH]c2ccc(Cl)cc12
181 to 183	CC1(C2CCCC2)Cc2cc(OC3=C(O)C(=O)NC3=O)c(Cl)c(Cl)c2C1=O (stereo not given)
62 to 64.5	COC(=O)C(C)Oc1ccc(NC(=O)CCCCCO)cc1 (stereo not given)
> 300	O=c1ccn(-c2cc3[nH]c(=O)c(=O)[nH]c3cc2[N+](=O)[O-])cc1
252 to 253	Nc1nc2c(ncn2OCC(O)CO)c(=O)[nH]1 (stereo not given)
143	CCc1noc(-c2cn(-c3ccc(OC)c(OC)c3)cn2)n1
146 to 147	CS(=O)(=O)c1cc(C(=O)N=C(N)N)ccc1C(F)(F)F
176 to 178	O=C(Cn1c(-c2ccc(Cl)cc2)nc2cccnc21)N(c1ccccc1)c1ccccc1
136 to 141	CC(C)NCC(O)COc1cccc2c1CCC(O)C2 (stereo not given)
303	CS(=O)(=O)N1CCCn2c(nc3c(N)nc4cc(Br)ccc4c32)C1
151 to 154	O=[N+]([O-])c1ccc2nc3c(nc2c1)OCC1CCCCN31 (stereo not given)
134 to 135	CC(C)(C)OC(=O)N[C@H]1CC[C@H](ON2C(=O)c3ccccc3C2=O)CC1
64.5	CN(CC(=O)O)c1ccc(C#N)cc1
199 to 202	CNc1ccccc1C(=O)N1Cc2ccccc2C(=O)N1

SMILES	melting point [°C]
COc1ccc(CCNS(=O)(=O)Cc2ccc3[nH]cc(CCN(C)C)c3c2)cc1	67 to 70
O=C(O)c1ncn(C(c2ccccc2)c2ccccc2)c1C(=O)O	194
Cc1cccc(NC(=O)NC2N=C(c3ccccc3F)c3ccccc3N(Cc3nccc4c3CCCC4)C2=O)c1 (racemic)	207 to 210
Cc1cc(-c2nc3ccccc3c(=O)n2-c2ccc(Br)cc2)cc(C)c1OCCO	164 to 165
